Data reported in PMC8277517, “Anticolon Cancer Properties of Pyrazole Derivatives Acting through Xanthine Oxidase Inhibition” (Journal of Oncology, 2021).
Like-named read-outs stand apart in the source and are kept apart here.

Tests used:
[1] = test system: MCF-7 breast adenocarcinoma cell line; test: Sulforhodamine B (SRB) cytotoxicity assay, MCF-7; type: cell-based; conditions: Homo sapiens, MCF7, 72 h
Description: (§1) Human hepatocellular carcinoma cell line (HepG-2, ATCC HB-8065), colorectal adenocarcinoma cell line (HCT-116, ATCC CCL-247), and breast adenocarcinoma cell line (MCF-7, ATCC HTB-22) were obtained from the American type culture collection (ATCC). Cells were maintained in RPMI-1640 supplemented with (100 μg/ml) penicillin (100 units/ml) and heat-inactivated fetal bovine serum (10% v/v) in a humidified, 5% (v/v) CO2 atmosphere at 37°C [13].
(§2) The cytotoxicity of the different compounds was tested against human tumor cells using the sulforhodamine B assay (SRB). Healthy growing cells were cultured in a 96-well tissue culture plate (3000 cells/well) for 24 hours to allow attachment of the cells to the plate before treatment with the tested compounds. […] Triplicate wells were incubated with different concentrations for 72 h and subsequently fixed with TCA (10% w/v) for 1 h at 4°C. […] After drying overnight, the SRB-stained cells were dissolved with tris-HCl and the color intensity was measured in a microplate reader at 540 nm.
(§3) The SRB assay is the “gold-standard” assay and is extensively used in the high-throughput screening program at the National Cancer Institute (NCI), USA. The SRB uses an aminoxanthene dye, which readily stains the cells through binding with the basic amino acids of cellular proteins. […]

[2] = test system: HepG2 hepatocellular carcinoma cell line; test: Sulforhodamine B (SRB) cytotoxicity assay, HepG2; type: cell-based; conditions: Homo sapiens, 72 h
Description: as §1, §2, §3

[3] = test system: HCT-116 colorectal carcinoma cell line; test: Sulforhodamine B (SRB) cytotoxicity assay, HCT-116; type: cell-based; conditions: Homo sapiens, 72 h
Description: as §1, §2, §3

[4] = test system: MCF-7, HepG2, and HCT-116 cell lines; set-up: method as in doi:10.2174/1570178617666200320104923; conditions: read-out: IC50 inhibition of cell proliferation (range over cell lines); cited from earlier work
[5] = test system: HCT-116 colorectal carcinoma cell line; set-up: method as in doi:10.2174/1570178617666200320104923; conditions: Figure 1 design strategy, earlier lead; cited from earlier work
[6] = test system: MCF-7 breast adenocarcinoma cell line; set-up: method as in doi:10.2174/1570178617666200320104923; conditions: Figure 1 design strategy, earlier lead; cited from earlier work

## COc1cccc2c1C(=O)c1c(O)c3c(c(O)c1C2=O)C[C@@](O)(C(=O)CO)C[C@@H]3O[C@H]1C[C@H](N)[C@H](O)[C@H](C)O1 [Doxorubicin]
[1]
  IC50: 4.7 ± 0.08 µM
[2]
  IC50: 3.9 ± 0.06 µM
[3]
  IC50: 4.4 ± 0.04 µM

## CC1=NN(C(=O)c2ccncc2)C(=O)C1=NNc1ccc([N+](=O)[O-])cc1 [1-isonicotinoyl-3-methyl-4-[2-(4-nitrophenyl)hydrazono]-2-pyrazolin-5-one]
[4]
  IC50: 0.2 to 3.4 µM

## COc1ccc(/N=N/c2c(C)nn(C(=O)c3ccncc3)c2C)cc1 [Aryldiazenyl pyrazoles (ADP)]
[5]
  IC50: 61.3 µM

## CC1=NN(C(=O)c2ccncc2)C(=O)/C1=N/Nc1ccc([N+](=O)[O-])cc1 [Arylhydrazono pyrazoles (AHP)]
[6]
  IC50: 0.2 µM
